Test results as given in paper PMC12477777, “Human exposure to green spaces and monoterpenes: discovery and use of α-pinene metabolites as biomarkers” (Environment international, 2025).
Read-outs that look alike come from different tables or passages of the source. Values belong to the compound of their own block, whether it stands above or below them.

Key:
[1] = Relative quantification of urinary aPM (UPLC-QTOF-MS, creatinine-normalized) after controlled α-pinene inhalation; type: in vivo, human; conditions: for Frequency of occurrence (percentage of samples with analyte detected) / Maximum response (highest peak response across all urine samples) / Observed Tmax / Tmax: human urine after α-pinene inhalation; for Proportion (observed) after α-pinene inhalation: share of total response of 22 aPM, averaged over post-exposure samples; for Tmax: inhaled or intranasal, read-out: Observed Tmax
Procedure: (§1) Briefly, for controlled inhalation experiments, eight healthy volunteers were exposed to α-pinene in a custom-built exposure chamber via inhalation from a 15 ml conical tube, containing approximately 100 μl α-pinene, for a duration of 10 min. Urine samples were collected before exposure (0 h) and 0.5, 1, 2, 3, and 4 h after exposure. […] Urine samples were collected both before (0 h) or 4 h after exposure. After collection, the urine samples were centrifuged and stored at −80 °C before analysis. […] Demographic information, including sex, age and race, can be found in Table S1.
(§2) Briefly, after 1:10 dilution, urine samples were separated using an Acquity I-Class UPLC system with an Acquity Premier CSH C18 UPLC column (Waters, MA) with a gradient comprising 0.1 % formic acid in water as the solvent A and 0.1 % formic acid in acetonitrile as the solvent B. Mass Spectrometry Elevated Energy (MS^E) data were collected using a Waters Synapt XS MS (Waters, MA) with an ESI ion source operated in the negative mode. Subsequent analyses of raw files were performed using UNIFI 1.9 and Progenesis QI 3.0 (both from Waters, MA). To validate LC-MS performance, one quality control (QC) sample, prepared by pooling equal amount of each urine sample, was injected after every ten urine sample injections.
(§3) Relative quantification of aPM was performed based on the peak responses normalized to urinary creatinine levels. Urinary creatinine levels were measured using an Ace Axcel Clinical Chemistry System with ACE Creatinine Reagent from Alfa Wassermann (West Caldwell, NJ). Statistical analyses, including ANOVA and Student’s t-tests, were conducted using SAS 9.4 (SAS Institute, NC) to explore differences in aPM across various time points. […] A threshold for statistical significance was defined as p < 0.05.

[2] = Kinetic modeling of urinary aPM with a pseudo one-compartment nonlinear mixed-effects model after α-pinene inhalation; type: in vivo, human; conditions: for F (%), fraction of metabolite generated from absorbed α-pinene: human urine after 10 min α-pinene inhalation, F normalized to the sum of 22 detected metabolites; for Elimination t1/2 / Ka, first-order generation constant / Ke, first-order elimination rate constant / half-life / k el: human urine after α-pinene inhalation, pseudo one-compartment model; for half-life / k el: inhaled or intranasal; for half-life: read-out: Elimination t1/2 (converted); for k el: read-out: Ke, first-order elimination rate constant (converted)
From the text: In this equation, i represents the participant index, j the urine sample index, C the creatinine-normalized peak response, and t the sample collection time ( h).Ka denotes the first-order generation constant ( h^−1 ), and Ke denotes the first-order elimination rate constant h^−1 . F indicates the fraction of specific aPM relative to absorbed α-pinene. The variables D and V refer to the absorbed α-pinene amount and the distribution volume, respectively. Because input data were derived from relative quantification, absolute values of D , V , and F were not available. For simplicity, D and V were fixed at 100 and 1, respectively, and F was normalized relative to the sum of all detected aPM. The error term ε accounts for residual variation.

[3] = aPM in mouse urine after i.p. injection of (+)-α-pinene or (−)-α-pinene; type: in vivo, mice (C57BL/6); conditions: for R/(R+S): mouse urine, enantiomer specificity
Procedure: Mouse urine was collected after exposures to either (+) or (−) α-pinene to distinguish between metabolites of different enantiomers of α-pinene. Adult male mice (C57BL/6) were intraperitoneally administered with 50 mg/kg body weight of (+)-α-pinene or (−)-α-pinene dissolved in 100 μl sterile saline with 1 % Tween 80.

[4] = Urinary aPM after 4 h greenness (forest) exposure; type: in vivo, human; set-up: Maximum response: unit not given here; conditions: for Frequency of occurrence / Maximum response: human urine, greenness exposure; for Proportion (observed) after greenness exposure: share of total aPM response
Procedure: as §1, §2, §3

[5] = cited from earlier work
[6] = mouse urine collected overnight, 50 mg/kg i.p. (+)-α-pinene, 50 mg/kg
[7] = mouse urine collected overnight, 50 mg/kg i.p. (−)-α-pinene, 50 mg/kg
[8] = male, C57BL/6, mouse, in vivo, ip, 50 mg/kg

Compound: CC1(C)C2CC1C(OC1OC(C(=O)O)C(O)C(O)C1O)C=C2C(=O)O (single isomer, unassigned) [aPM5d, Myrtenic acid-4-O-GlcA]
Frequency of occurrence (percentage of samples with analyte detected) [1]: 81.3%
Maximum response (highest peak response across all urine samples) [1]: 5115
Observed Tmax [1]: 60 min
Proportion (observed) after α-pinene inhalation [1]: 0.4%
F (%), fraction of metabolite generated from absorbed α-pinene [2]: 0.27 ± 0.09%
Elimination t1/2 [2]: 78.6 ± 27.6 min
Ka, first-order generation constant [2]: 1.33 ± 0.51 h⁻¹
Ke, first-order elimination rate constant [2]: 0.53 ± 0.19 h⁻¹
(1R)-(+)-α-Pinene (Average), proportion of aPM in mouse urine [3, 6]: 0.2%
(1S)-(−)-α-Pinene (Average), proportion of aPM in mouse urine [3, 7]: 0.0%
R/(R+S) [3]: 100%
Frequency of occurrence [4]: 0.0%

Compound: CC1(C)C2CC1C(OC1OC(C(=O)O)C(O)C(O)C1O)C=C2C(=O)O (single isomer, unassigned) [aPM5e, Myrtenic acid-4-O-GlcA]
Frequency of occurrence (percentage of samples with analyte detected) [1]: 72.9%
Observed Tmax [1]: 60 min
Proportion (observed) after α-pinene inhalation [1]: 0.3%
F (%), fraction of metabolite generated from absorbed α-pinene [2]: 0.38 ± 0.16%
Elimination t1/2 [2]: 45.6 ± 16.8 min
Ka, first-order generation constant [2]: 0.91 ± 0.36 h⁻¹
Ke, first-order elimination rate constant [2]: 0.91 ± 0.34 h⁻¹
(1R)-(+)-α-Pinene (Average), proportion of aPM in mouse urine [3, 6]: 0.0%
(1S)-(−)-α-Pinene (Average), proportion of aPM in mouse urine [3, 7]: 0.3%
R/(R+S) [3]: 0%
Frequency of occurrence [4]: 25.0%
Maximum response [4]: 93
Proportion (observed) after greenness exposure [4]: 1.0%

Compound: CC1(C)C2CC1C(OC1OC(C(=O)O)C(O)C(O)C1O)C=C2C(=O)O (single isomer, unassigned) [aPM5f, Myrtenic acid-4-O-GlcA]
Frequency of occurrence (percentage of samples with analyte detected) [1]: 87.5%
Maximum response (highest peak response across all urine samples) [1]: 5543
Observed Tmax [1]: 60 min
Proportion (observed) after α-pinene inhalation [1]: 0.5%
F (%), fraction of metabolite generated from absorbed α-pinene [2]: 0.29 ± 0.12%
Elimination t1/2 [2]: 57 ± 22.2 min
Ka, first-order generation constant [2]: 1.53 ± 0.71 h⁻¹
Ke, first-order elimination rate constant [2]: 0.73 ± 0.29 h⁻¹
(1R)-(+)-α-Pinene (Average), proportion of aPM in mouse urine [3, 6]: 0.0%
(1S)-(−)-α-Pinene (Average), proportion of aPM in mouse urine [3, 7]: 0.0%
Frequency of occurrence [4]: 0.0%

Compound: CC1(C)C2CC1C(OC1OC(C(=O)O)C(O)C(O)C1O)C=C2C(=O)O (single isomer, unassigned) [aPM5g, Myrtenic acid-4-O-GlcA]
Frequency of occurrence (percentage of samples with analyte detected) [1]: 100.0%
Maximum response (highest peak response across all urine samples) [1]: 77327
Observed Tmax [1]: 60 min
Proportion (observed) after α-pinene inhalation [1]: 4.4%
F (%), fraction of metabolite generated from absorbed α-pinene [2]: 5.10 ± 2.25%
Elimination t1/2 [2]: 41.4 ± 17.4 min
Ka, first-order generation constant [2]: 1.62 ± 0.81 h⁻¹
Ke, first-order elimination rate constant [2]: 1.01 ± 0.43 h⁻¹
(1R)-(+)-α-Pinene (Average), proportion of aPM in mouse urine [3, 6]: 0.0%
(1S)-(−)-α-Pinene (Average), proportion of aPM in mouse urine [3, 7]: 0.0%
Frequency of occurrence [4]: 25.0%
Maximum response [4]: 98
Proportion (observed) after greenness exposure [4]: 0.4%

Compound: CC1(C)C2CC1C(C(=O)O)=CC2=O (stereo not shown) [aPM1, Myrtenic acid-4-one]
Frequency of occurrence (percentage of samples with analyte detected) [1]: 95.8%
Maximum response (highest peak response across all urine samples) [1]: 17385
Tmax [1]: 60 min
Proportion (observed) after α-pinene inhalation [1]: 1.8%
F (%), fraction of metabolite generated from absorbed α-pinene [2]: 1.15 ± 0.39%
Ka, first-order generation constant [2]: 1.25 ± 0.43 h⁻¹
half-life [2]: 72 ± 22.8 min
k el [2]: 0.000161 s⁻¹
(1R)-(+)-α-Pinene (Average), proportion of aPM in mouse urine [3, 8]: 0.1%
(1S)-(−)-α-Pinene (Average), proportion of aPM in mouse urine [3, 8]: 0.8%
Frequency of occurrence [4]: 31.3%
Maximum response [4]: 3544
Proportion (observed) after greenness exposure [4]: 1.3%

Compound: CC1=CC(OC2OC(C(=O)O)C(O)C(O)C2O)C2CC1C2(C)C (stereo not shown) [aPM2b, verbenol glucuronide]
Frequency of occurrence (percentage of samples with analyte detected) [1]: 100.0%
Tmax [1]: 30 min
F (%), fraction of metabolite generated from absorbed α-pinene [2]: 17.23 ± 3.91%
Ka, first-order generation constant [2]: 3.46 ± 0.98 h⁻¹
half-life [2]: 35.4 ± 4.8 min
k el [2]: 0.000325 s⁻¹
(1R)-(+)-α-Pinene (Average), proportion of aPM in mouse urine [3, 8]: 50.5%
(1S)-(−)-α-Pinene (Average), proportion of aPM in mouse urine [3, 8]: 34.4%
Detection in mouse urine ([3]; mouse, in vivo): present in murine samples
Frequency of occurrence [4]: 6.3%
Maximum response [4]: 171
Proportion (observed) after greenness exposure [4]: 0.3%

Compound: CC1(C)C2CC=C(COC3OC(C(=O)O)C(O)C(O)C3O)C1C2 (stereo not shown) [aPM2c, myrtenol glucuronide]
Frequency of occurrence (percentage of samples with analyte detected) [1]: 95.8%
Maximum response (highest peak response across all urine samples) [1]: 154854
Tmax [1]: 30 min
Proportion (observed) after α-pinene inhalation [1]: 4.9%
F (%), fraction of metabolite generated from absorbed α-pinene [2]: 6.99 ± 2.12%
Ka, first-order generation constant [2]: 3.02 ± 0.88 h⁻¹
half-life [2]: 30 ± 5.4 min
k el [2]: 0.000386 s⁻¹
(1R)-(+)-α-Pinene (Average), proportion of aPM in mouse urine [3, 8]: 21.8%
(1S)-(−)-α-Pinene (Average), proportion of aPM in mouse urine [3, 8]: 30.3%
Frequency of occurrence [4]: 31.3%
Maximum response [4]: 1435
Proportion (observed) after greenness exposure [4]: 0.5%

Compound: C=C(C)[C@H]1CC=C(C)CC1 [limonene]
Blood half-life (t1/2α) ([5]; limonene in blood, ref Falk-Filipsson et al., 1993): ~ 3 min

Compound: CC1=CCC2CC1C2(C)C (stereo not drawn) [α-pinene, α-Pinene]
Blood half-life (t1/2α) ([5]; α-pinene in blood, ref Falk et al., 1990): ~ 5 min

F (%), fraction of metabolite generated from absorbed α-pinene [2]: 0.65 ± 0.31%
Elimination t1/2 [2]: 58.2 ± 25.2 min
Ka, first-order generation constant [2]: 0.73 ± 0.33 h⁻¹
Ke, first-order elimination rate constant [2]: 0.71 ± 0.31 h⁻¹
(1R)-(+)-α-Pinene (Average), proportion of aPM in mouse urine ([3]; mouse urine collected overnight, 50 mg/kg i.p. (+)-α-pinene): 0.0%
(1S)-(−)-α-Pinene (Average), proportion of aPM in mouse urine ([3]; mouse urine collected overnight, 50 mg/kg i.p. (−)-α-pinene): 0.0%
Frequency of occurrence [4]: 0.0%
Compound: Myrtenic acid-4-O-7-O-GlcA [aPM8]
Frequency of occurrence (percentage of samples with analyte detected) [1]: 83.3%
Maximum response (highest peak response across all urine samples) [1]: 13644
Observed Tmax [1]: 60 min
Proportion (observed) after α-pinene inhalation [1]: 0.8%

F (%), fraction of metabolite generated from absorbed α-pinene [2]: 1.56 ± 0.66%
Elimination t1/2 [2]: 44.4 ± 13.2 min
Ka, first-order generation constant [2]: 1.46 ± 0.48 h⁻¹
Ke, first-order elimination rate constant [2]: 0.93 ± 0.27 h⁻¹
(1R)-(+)-α-Pinene (Average), proportion of aPM in mouse urine [3, 6]: 21.2%
(1S)-(−)-α-Pinene (Average), proportion of aPM in mouse urine [3, 7]: 3.8%
R/(R+S) [3]: 84.7%
Frequency of occurrence [4]: 0.0%
Compound: Pinanetriol-GlcA [aPM7a]
Frequency of occurrence (percentage of samples with analyte detected) [1]: 89.6%
Maximum response (highest peak response across all urine samples) [1]: 20611
Observed Tmax [1]: 60 min
Proportion (observed) after α-pinene inhalation [1]: 1.3%

F (%), fraction of metabolite generated from absorbed α-pinene [2]: 0.28 ± 0.09%
Elimination t1/2 [2]: 36.6 ± 7.2 min
Ka, first-order generation constant [2]: 2.69 ± 0.73 h⁻¹
Ke, first-order elimination rate constant [2]: 1.15 ± 0.22 h⁻¹
(1R)-(+)-α-Pinene (Average), proportion of aPM in mouse urine [3, 6]: 3.7%
(1S)-(−)-α-Pinene (Average), proportion of aPM in mouse urine [3, 7]: 0.0%
R/(R+S) [3]: 100%
Frequency of occurrence [4]: 0.0%
Compound: Pinanetriol-GlcA [aPM7b]
Frequency of occurrence (percentage of samples with analyte detected) [1]: 83.3%
Maximum response (highest peak response across all urine samples) [1]: 8663
Observed Tmax [1]: 30 min
Proportion (observed) after α-pinene inhalation [1]: 0.2%
